Measurements from patent US20240391950A1, “PEPTIDE CROSSLINKING AGENT AND CROSSLINKED PEPTIDE WHICH IS CROSSLINKED USING SAID CROSSLINKING AGENT” (Kagoshima University, priority 2020, published 2024).
Starred links: 1 amine or outer side, 2 acyl side, 3 side chain; linkers in the order of their positions; H or OH if unused. Positions of bridges follow the written chain, without caps; N, C: chain ends. Residues, ends and D or L forms follow the SMILES beside them. X4 = C#CCON=C(C)C([*:1])[*:2]

Key:
α-chymotrypsin = molecular target: T1, α-chymotrypsin (Bos taurus, UniProt P00766); experiment: Resistance to α-chymotrypsin digestion followed by reverse-phase HPLC; assay type: in vitro ADME, bovine; details: for change of HPLC peak after addition of α-chymotrypsin: α-chymotrypsin 1/10 weight ratio, 37° C.; for resistance to protease (FIG. 10): α-chymotrypsin
T1 construct: purchased MP Biomedicals; host or cells: bovine pancreas
Protocol: For evaluation of stability of a peptide by crosslinking reaction, resistivity of α-chymotrypsin (derived from bovine pancreas, manufactured by MP Biomedicals) to protease decomposition was evaluated with oxytocin crosslinked by 2,2-dichloroacetophenone. Crosslinking of oxytocin by 2,2-dichloroacetophenone was performed in the same manner with replacement of 1.1-dichloroacetone in Example 11 by 2,2-dichloroacetophenone, and an objective product was taken by reverse-phase HPLC. Specifically, 10 mg (10 μmol) of oxytocin acetate was dissolved in 3 mL of a 0.1 M HEPES hydrochloric acid buffer (pH 8.0), the solution was mixed with 2 mL of a 0.1 M HEPES hydrochloric acid buffer (pH 8.0) containing 57.4 mg (200 μmol) of TCEP-HCl, and the mixture was stirred for 1 hour. Next, 8.3 mg (44 μmol) of 2,2-dichloroacetophenone dissolved in 0.44 mL of acetonitrile was added and mixed, and the mixture was stirred at room temperature for 1 hour. The resulting sample was applied to an InertSustain C18 column (5 μm, 14×250 mm, manufactured by GL Sciences Inc.) (flow rate 5 mL/min) connected to LC-Forte (manufactured by YMC). The elution was performed at a linear gradient from 4% to 70% (containing 0.1% formic acid). An objective product was taken, and freeze-dried after removal of acetonitrile at a negative pressure.
Evaluation was made with oxytocin-OX and an oxytocin SH reduced form (oxytocin-RD) shown by the following formula A3 used as comparison subjects. In other words, an oxytocin solution obtained by dissolution in a 0.1 M phosphate buffer (pH 7.0) at 0.5 mg/mL was adopted as oxytocin-OX, and a substance obtained after a lapse of 30 minutes from addition of an oxytocin solution obtained by dissolution in a 0.1 M phosphate buffer (pH 7.0) containing 0.5 mg/mL TCEP, at 0.5 mg/mL, was adopted as oxytocin-RD. To 200 μL of each of these solutions was 10 μL ( 1/10 on weight ratio to oxytocin) of 1 mg/mL α-chymotrypsin, and the resultant was subjected to incubation at 37° C. and analysis by reverse-phase HPLC. In the case of blank, a phosphate buffer was added instead of α-chymotrypsin.
A substance obtained after a lapse of 30 minutes from dissolution of 0.5 mg/mL oxytocin-DP purified, in a 0.1 M phosphate buffer (pH 7.0) containing 0.5 mg/mL TCEP, was adopted as a sample, and similarly α-chymotrypsin was added and analysis by reverse-phase HPLC was made.

human serum-derived IgG = experiment: Dynamic binding capacity (DBC) measurement and alkali resistance evaluation of peptide-immobilized column; details: for Dynamic binding capacity: 10% breakthrough
Protocol: Five mL of 1 mM hydrochloric acid was sent to an NHS-activated prepacked column having a volume of 1 mL, and an isopropanol solution in the column was removed. Next, a 10.0 mg/mL peptide solution (dissolved in 100 μL of DMSO) was diluted with a coupling solution (20 mM carbonate buffer, 50 mM sodium chloride, pH 8.3) by 10-fold, 1 mL of the dilution liquid was sent, and immobilization was performed at room temperature for 4 hours. Thereafter, unreacted NHS was blocked by 5 mL of 1 M Tris (pH 8.0) at room temperature for 1 hour. Thereafter, washing with 5 mL of an aqueous 0.1 N NaOH solution was made. Finally, 10 mL of a PBS solution (20 mM phosphate buffer, 150 mM sodium chloride, pH 7.4) was sent, and used in chromatography evaluation.
A column where the amount of immobilization of a peptide was 1 mg was produced by the same method as described above. The column produced was equilibrated with PBS, and 1 mg/mL human serum-derived IgG (manufactured by Sigma-Aldrich Co. LLC) dissolved in PBS was sent at a flow rate of 1 mL/min (retention time 1 min). DBC was indicated as one determined from the amount of a protein added at the time of point where 10% of the absorbance at 280 nm of the sample added was leaked.
Next, 5 mL of an aqueous 0.1 N sodium hydroxide solution was sent to the 1-mL column where 1 mg of the peptide was immobilized. Thereafter, washing with PBS was performed. This cycle was repeated 30 times for the 1,1-dichloroacetone-crosslinked cyclic peptide, and was repeated 10 times for the 1,1-dichloropinacolin-crosslinked cyclic peptide. DBC measurement was performed at a flow rate of 1 mL/min at the 1st to 5th and 10th times of the cycles, and further performed at the 20th and 30th times of the cycles with respect to the 1,1-dichloroacetone-crosslinked cyclic peptide, and thus alkali resistance was evaluated. The variation in DBC was determined based on the measurement results under the assumption that DBC immediately after column production was 100% according to Table 2.
Five mL of a 0.1 M sodium hydroxide solution was sent to the produced 1-mL column where the amount of immobilization of a peptide was 1 mg, and thereafter washing with 5 mL of PBS was performed. These operations were defined as one cycle and treatment of washing with aqueous NaOH solution/washing with PBS was performed 1 to 30 times, and thereafter DBC measurement was performed at a flow rate of 1 mL/min at the intended number of times (1, 2, 3, 4, 5, 10, 20, 30 times).

human IgG1 = human IgG1 (Homo sapiens, UniProt P01857); experiment: SPR (BIAcore T200) measurement of binding affinity of crosslinked cyclic peptide to immobilized IgG
Protocol: The affinity analysis was performed by the following method. First, a CM5 sensor chip was installed on BIAcoreT200 (GE healthcare), and 0.4 M 1-ethyl-3-(3-dimethylaminopropyl)carbodiimide (EDC) and a 0.1 M sulfo-N-hydroxysuccinimide (sulfo-NHS) solution mixed in equivalent amounts were injected to the sensor chip at a flow rate of […], to thereby activate the sensor chip. Thereafter, IgG was immobilized onto the sensor chip under a condition of a pH of 5.5 (10 mM Na acetate). An HBS-EP buffer (10 mM HEPES, 150 mM NaCl, 0.005% Tween 20, 3 mM EDTA, pH 7.4) was used in measurement, and 15.625, 31.2, 62.5, 125, 250, and 500 nM of peptides were each injected at a flow rate of […] for 180 seconds, to thereby monitor binding reaction. When dissociation reaction was measured, only the buffer was injected for 600 seconds. The interaction parameter was analyzed with BIAevaluation T100 software.
IgG-binding peptide derivatives compared and evaluated are illustrated in FIG. 1.

human IgG1 (human) [1] = experiment: SPR, BIAcore T200, IgG immobilised on CM5 chip, peptide as analyte
human IgG1 (human) [2] = experiment: SPR, same affinity measurement as in Example 4
human IgG1 (human) [3] = experiment: SPR, BIAcore T200, IgG immobilised on CM5 chip
[4] = molecular target: human serum-derived IgG (manufactured by Sigma-Aldrich Co. LLC); experiment: peptide-immobilised column, human serum IgG, 10% breakthrough
[5] = 0.1 M phosphate buffer pH 7.0 containing 0.5 mg/mL TCEP
[6] = in the presence of reducing agent TCEP
[7] = number of washing times with 0.1 N NaOH: 1

Sequence of human IgG1 (P01857 1-328 limits assumed): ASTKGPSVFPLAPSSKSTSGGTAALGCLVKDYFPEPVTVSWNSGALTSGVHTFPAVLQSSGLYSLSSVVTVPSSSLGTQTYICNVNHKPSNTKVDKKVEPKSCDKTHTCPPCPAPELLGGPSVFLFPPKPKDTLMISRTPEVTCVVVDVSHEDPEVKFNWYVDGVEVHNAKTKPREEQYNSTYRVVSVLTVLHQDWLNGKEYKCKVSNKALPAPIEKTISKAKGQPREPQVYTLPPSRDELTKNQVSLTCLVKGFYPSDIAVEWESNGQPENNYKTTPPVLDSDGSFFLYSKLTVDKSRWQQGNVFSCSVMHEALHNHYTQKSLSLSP

For `CCC(C)C(NC(=O)C(Cc1ccc(O)cc1)NC(=O)C(N)CS)C(=O)NC(CCC(N)=O)C(=O)NC(CC(N)=O)C(=O)NC(CS)C(=O)N1CCCC1C(=O)NC(CC(C)C)C(=O)NCC(N)=O` (stereo not drawn) [oxytocin-RD], the “change of HPLC peak after addition of α-chymotrypsin” value (“change of HPLC peak” for short) (α-chymotrypsin; [5]) was “any peak disappeared after only 10 minutes” and the “resistance to protease (FIG. 10)” value (α-chymotrypsin; [6]) was “extremely low”.

With `CCC(C)C1NC(=O)C(Cc2ccc(O)cc2)NC(=O)C(N)CS/C(=C/c2ccccc2)SCC(C(=O)N2CCCC2C(=O)NC(CC(C)C)C(=O)NCC(N)=O)NC(=O)C(CC(N)=O)NC(=O)C(CCC(N)=O)NC1=O` (stereo not drawn) [oxytocin-DP-RDH] the “change of HPLC peak” value (α-chymotrypsin; [5]) was “no decrease was observed” and the “resistance to protease (FIG. 10)” value (α-chymotrypsin; [6]) was “high resistance”.

`CC(C)C[C@@H]1NC(=O)[C@H](CCC(=O)O)NC(=O)CNC(=O)[C@H](CCCNC(=N)N)NC(=O)[C@H](Cc2c[nH]cn2)NC(=O)[C@H](Cc2ccc(O)cc2)NC(=O)[C@H](C)NC(=O)[C@@H](NC(=O)[C@H](CC(=O)O)NC(=O)[C@@H]2CCCN2C(=O)CNC(=O)[C@H](CO)NC(=O)CNC(=O)CNC(=O)[C@H](CO)NC(=O)CN)CSSC[C@@H](C(=O)N[C@H](C(=O)N[C@@H](Cc2ccccc2)C(=O)N[C@@H](Cc2c[nH]cn2)C(=O)O)[C@@H](C)O)NC(=O)[C@H](Cc2c[nH]c3ccccc23)NC(=O)[C@H](C(C)C)NC1=O` [IgG-BP-LongGS Original] (H-GSGGSGPDCAYHRGELVWCTFH-OH; disulfide 9-19; N-terminus and C-terminus assumed) was tested, and the “change in amount of binding of the antibody to the column by alkali washing (FIG. 2)” value (human serum-derived IgG; 0.1 M NaOH washing/PBS washing, 1 to 30 cycles) was “reduced by alkali washing”, the “value of DBC, by itself, of peptide-immobilized column” value (human serum-derived IgG; before repeated alkali washing, 1 mL/min) was 17.24 mg/mL and the “initial value of DBC of peptide column” value (human serum-derived IgG; initial value, 1 mg peptide on 1-mL column, 1 mL/min) was 17.24 mg/mL-column. For the same molecule, the “Variation (%) in dynamic binding capacity” value (human serum-derived IgG; [7]) was 100.0%, the “Variation (%) in maximum binding capacity” value (human serum-derived IgG; [7]) was 100.0% and the Maximum binding capacity (human serum-derived IgG; number of washing times with 0.1 N NaOH: 1, 1 mg peptide on 1-mL column) was 12.37 mg. The Dynamic binding capacity (human serum-derived IgG; number of washing times with 0.1 N NaOH: 1, 1 mL/min) was 17.24 mg/mL, the “Variation (%) in maximum binding capacity” value (human serum-derived IgG; number of washing times with 0.1 N NaOH: 5) was 49.2% and the Maximum binding capacity (human serum-derived IgG; number of washing times with 0.1 N NaOH: 5, 1 mg peptide on 1-mL column) was 6.09 mg. The Dynamic binding capacity (human serum-derived IgG; number of washing times with 0.1 N NaOH: 5, 1 mL/min) was 8.74 mg/mL, the “Variation (%) in dynamic binding capacity” value (human serum-derived IgG; number of washing times with 0.1 N NaOH: 5, listed as IgG-BP-LGS) was 50.7% and the “Variation (%) in dynamic binding capacity” value (human serum-derived IgG; number of washing times with 0.1 N NaOH: 5, listed as original IgG-binding peptide-immobilized column having a disulfide bond) was ≤ 50%. It also gave a kd (human IgG1; SPR, IgG immobilized on CM5 chip, HBS-EP pH 7.4) of 0.019 and a ka (human IgG1; SPR, IgG immobilized on CM5 chip, HBS-EP pH 7.4, in M-1 s-1 (unit assumed)) of 2.37E+06.

In the case of `CCC(C)C1NC(=O)C(Cc2ccc(O)cc2)NC(=O)C(N)CSSCC(C(=O)N2CCCC2C(=O)NC(CC(C)C)C(=O)NCC(N)=O)NC(=O)C(CC(N)=O)NC(=O)C(CCC(N)=O)NC1=O` (stereo not drawn) [oxytocin-OX, Cys-Tyr-Ile-Gln-Asn-Cys-Pro-Leu-Gly-NH2], the “change of HPLC peak” value (α-chymotrypsin; 0.1 M phosphate buffer pH 7.0, no TCEP, 15 minutes to 2 hours) is reported as “no change of any peak was observed” and the “resistance to protease (FIG. 10)” value (α-chymotrypsin; no TCEP) is reported as “high protease resistance”.

`C#CCON=C(C)C1SC[C@H](NC(=O)[C@H](CC(=O)O)NC(=O)[C@@H]2CCCN2C(=O)CNC(=O)[C@H](CO)NC(=O)CNC(=O)CNC(=O)[C@H](CO)NC(=O)CN)C(=O)N[C@@H](C)C(=O)N[C@@H](Cc2ccc(O)cc2)C(=O)N[C@@H](Cc2c[nH]cn2)C(=O)N[C@@H](CCCNC(=N)N)C(=O)NCC(=O)N[C@@H](CCC(=O)O)C(=O)N[C@@H](CC(C)C)C(=O)N[C@@H](C(C)C)C(=O)N[C@@H](Cc2c[nH]c3ccccc23)C(=O)N[C@H](C(=O)N[C@H](C(=O)N[C@@H](Cc2ccccc2)C(=O)N[C@@H](Cc2c[nH]cn2)C(N)=O)[C@@H](C)O)CS1` (stereo partly drawn) (H-GSGGSGPDCAYHRGELVWCTFH-NH2; linker 9-19 via X4; C-terminus assumed) was tested, and the “reduction of affinity as compared with the original peptide” value (human IgG1; Kd relative to original disulfide IgG-binding peptide) was “about 42 fold” and the Kd (human IgG1; SPR, human IgG1) was 334 nM.

In the case of `CCC(C)C1NC(=O)C(Cc2ccc(O)cc2)NC(=O)C(N)CSC(C(=O)c2ccccc2)SCC(C(=O)N2CCCC2C(=O)NC(CC(C)C)C(=O)NCC(N)=O)NC(=O)C(CC(N)=O)NC(=O)C(CCC(N)=O)NC1=O` (stereo not drawn) [oxytocin-DP], the “change of HPLC peak” value (α-chymotrypsin; [5]) is reported as “no decrease was observed” and the “resistance to protease (FIG. 10)” value (α-chymotrypsin; [6]) is reported as “high resistance”.

B1: 2,2-dichloroacetophenone-crosslinked cyclic peptide of IgG-BP-LongGS (peptide)
peptide: GSGGSGPDCAYHRGELVWCTFH
modifications: the thiol groups of the two Cys residues crosslinked with 2,2-dichloroacetophenone in place of the disulfide bond; Fmoc removed
For B1, the Kd (human IgG1 (human) [1]) was 6.4 nM.

B2: alkyne functional group-introduced, crosslinked and cyclized peptide (1,1-dichloroacetone-crosslinked IgG-BP-LongGS reacted with O-2-Propynylhydroxylamine) (peptide)
peptide: GSGGSGPDCAYHRGELVWCTFH
modifications: not fully specified; the two Cys thiols crosslinked with 1,1-dichloroacetone; the crosslink reacted with O-2-Propynylhydroxylamine hydrochloride to introduce an alkyne group
With B2 the Kd (human IgG1 (human) [2]) was 334 nM and the fold reduction of affinity against the original peptide (human IgG1 (human) [2]) was 42 fold.

B3: 1,3-dichloroacetone-crosslinked cyclic peptide of IgG-BP-LongGS (peptide)
peptide: GSGGSGPDCAYHRGELVWCTFH
modifications: the thiol groups of the two Cys residues crosslinked with 1,3-dichloroacetone in place of the disulfide bond
Work on B3 yielded a fold reduction of affinity against the original peptide (human IgG1 (human) [3]) of 500 fold, an initial value of DBC [4] of 2.3 mg/mL-column and a Kd (human IgG1 (human) [1]) of 4900 nM.
